# Legend:
# [1] = Determination of the microsomal half-life / microsomal clearance; format: in vitro ADME; conditions: pH 7.4; human liver microsomes, 0.5 μM test substance, 0.25 mg protein/ml, NADPH, 37° C.; read-out: Human mCl (mikrosomal clearance)
# Protocol: The metabolic stability of the compounds of the invention was determined in the following assay.
# The test substances were incubated in a concentration of 0.5 μM as follows:
# 0.5 μM test substance are preincubated together with liver microsomes from different species (from rat, human or other species) (0.25 mg of microsomal protein/ml) in 0.05 M potassium phosphate buffer of pH 7.4 in microtiter plates at 37° C. for 5 min. The reaction is started by adding NADPH (1 mg/mL). After 0, 5, 10, 15, 20 and 30 min, 50 μl aliquots are removed, and the reaction is immediately stopped and cooled with the same volume of acetonitrile. The samples are frozen until analyzed. The remaining concentration of undegraded test substance is determined by MSMS. The half-life (T1/2) is determined from the gradient of the signal of test substance/unit time plot, it being possible to calculate the half-life of the test substance, assuming first order kinetics, from the decrease in the concentration of the compound with time. The microsomal clearance (mC1) is calculated from mC1=1n2/T1/2/(content of microsomal protein in mg/ml)×1000 [ml/min/mg] (modified from references: Di, The Society for Biomoleculur Screening, 2003, 453-462; Obach, DMD, 1999 vol 27. N 11, 1350-1359).
# [2] = target: T1, human dopamine D2L receptors (long isoform) (Homo sapiens, UniProt P14416); experiment: Dopamine D2L receptor binding ([125I]iodospiperone displacement); conditions: selectivity ratio, human D2L vs human D3 binding
# T1 construct: expressed in transfected cells; host or cells: HEK-293
# Protocol: The substance to be tested was either dissolved in methanol/Chremophor® (BASF SE) or in dimethyl sulfoxide and then diluted with water to the desired concentration.
# Each assay mixture was run in triplicate. • The incubation buffer contained 50 mM tris, 120 mM NaCl, 5 mM KCl, 2 mM CaCl2, 2 mM MgCl2 and 0.1% bovine serum albumin, 10 μM quinolone and 0.1% ascorbic acid (prepared fresh daily). […] Each assay mixture was run in triplicate. • The incubation buffer contained 50 mM tris, 120 mM NaCl, 5 mM KCl, 2 mM CaCl2, 2 mM MgCl2 and 0.1% bovine serum albumin. The buffer was adjusted to pH 7.4 with HCl. c) Measurement and analysis: • After having been incubated at 25° C. for 60 minutes, the assay mixtures were filtered through a Whatman GF/B glass fiber filter under vacuum using a cell col-lecting device. The filters were transferred to scintillation viols using a filter transfer system. After 4 ml of Ultima Gold® (Packard) have been added, the samples were shaken for one hour and the radioactivity was then counted in a Beta-Counter (Packard, Tricarb 2000 or 2200CA).
# T1 sequence (P14416 whole entry, canonical isoform): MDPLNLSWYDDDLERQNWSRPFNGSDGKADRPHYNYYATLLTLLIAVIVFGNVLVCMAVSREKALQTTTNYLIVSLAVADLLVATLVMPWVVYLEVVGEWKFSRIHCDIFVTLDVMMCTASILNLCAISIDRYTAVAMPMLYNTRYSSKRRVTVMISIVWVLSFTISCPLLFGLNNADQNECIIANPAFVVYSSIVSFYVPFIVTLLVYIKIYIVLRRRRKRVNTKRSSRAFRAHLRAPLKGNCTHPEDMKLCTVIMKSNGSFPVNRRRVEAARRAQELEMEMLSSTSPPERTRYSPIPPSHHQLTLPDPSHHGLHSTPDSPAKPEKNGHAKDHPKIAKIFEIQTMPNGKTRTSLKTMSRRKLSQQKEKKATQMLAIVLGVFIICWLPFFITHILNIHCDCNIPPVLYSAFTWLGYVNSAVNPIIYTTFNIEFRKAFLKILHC
Structure (SMILES),microsomal CLint at 0.5 μM [1] [µL/min/mg],"D2/D3, Ki (D2L)/Ki (D3) [2]"
"COCCc1cc(N2CCN(CC[C@H]3CC[C@@H](NC(=O)[C@H]4CC[C@@H](O)CC4)CC3)CC2)nc(C(C)(C)C)n1 [Compound 5, Cis-N-[cis-4-[2-[4-[2-tert-butyl-6-(2-methoxyethyl)pyrimidin-4-yl]piperazin-1-yl]ethyl]cyclohexyl]-4-hydroxy-cyclohexanecarboxamide]",> 120,++ (++ >20)
"CC(C)(C)c1nc(C2CCC2)cc(N2CCN(CC[C@H]3CC[C@@H](NC(=O)[C@H]4CC[C@H](O)CC4)CC3)CC2)n1 [Compound 6, trans-N-[cis-4-[2-[4-(2-tert-butyl-6-cyclobutyl-pyrimidin-4-yl)piperazin-1-yl]ethyl]cyclohexyl]-4-hydroxy-cyclohexanecarboxamide]",20 to 120,+++ (+++ >50)
"COCCc1cc(N2CCN(CC[C@H]3C[C@H](NC(=O)[C@H]4CC[C@H](O)CC4)C3)CC2)nc(C(C)(C)C)n1.O=C(O)C(F)(F)F [Compound 7, Trans-N-[trans-3-[2-[4-[2-tert-butyl-6-(2-methoxyethyl)pyrimidin-4-yl]piperazin-1-yl]ethyl]cyclobutyl]-4-hydroxy-cyclohexanecarboxamide; 2,2,2-trifluoroacetic acid]",20 to 120,+++ (+++ >50)
"COCCc1cc(N2CCN(CC[C@H]3C[C@@H](NC(=O)[C@H]4CC[C@H](O)CC4)C3)CC2)nc(C(C)(C)C)n1.O=C(O)C(F)(F)F [Compound 8, trans-N-[cis-3-[2-[4-[2-tert-butyl-6-(2-methoxyethyl)pyrimidin-4-yl]piperazin-1-yl]ethyl]cyclobutyl]-4-hydroxy-cyclohexanecarboxamide; 2,2,2-trifluoroacetic acid]",20 to 120,+++ (+++ >50)
"CC(C)(C)c1nc(C2CCC2)cc(N2CCN(CC[C@H]3C[C@H](NC(=O)[C@H]4CC[C@H](O)CC4)C3)CC2)n1 [Compound 9, Trans-N-[trans-3-[2-[4-(2-tert-butyl-6-cyclobutyl-pyrimidin-4-yl)piperazin-1-yl]ethyl]cyclobutyl]-4-hydroxy-cyclohexanecarboxamide]",20 to 120,+++ (+++ >50)
"CC(C)(C)c1nc(C2CCC2)cc(N2CCN(CC[C@H]3C[C@@H](NC(=O)[C@H]4CC[C@H](O)CC4)C3)CC2)n1 [Compound 10, Trans-N-[cis-3-[2-[4-(2-tert-butyl-6-cyclobutyl-pyrimidin-4-yl)piperazin-1-yl]ethyl]cyclobutyl]-4-hydroxy-cyclohexanecarboxamide]",20 to 120,+++ (+++ >50)
"COCCc1cc(N2CCN(CC[C@H]3C[C@@H](NC(=O)[C@H]4CC[C@@H](O)CC4)C3)CC2)nc(C(C)(C)C)n1 [Compound 12, Cis-N-[cis-3-[2-[4-[2-tert-butyl-6-(2-methoxyethyl)pyrimidin-4-yl]piperazin-1-yl]ethyl]cyclobutyl]-4-hydroxy-cyclohexanecarboxamide]",20 to 120,+++ (+++ >50)
"CC(C)(C)c1nc(C2CCC2)cc(N2CCN(CC[C@H]3CC[C@H](NC(=O)[C@H]4C[C@@H](O)C4)CC3)CC2)n1 [Compound 13, Cis-N-[trans-4-[2-[4-(2-tert-butyl-6-cyclobutyl-pyrimidin-4-yl)piperazin-1-yl]ethyl]cyclohexyl]-3-hydroxy-cyclobutanecarboxamide]",> 120,++ (++ >20)
"CC(C)(C)c1nc(C2CCC2)cc(N2CCN(CC[C@H]3CC[C@H](NC(=O)[C@H]4CC[C@@H](O)CC4)CC3)CC2)n1.O=C(O)C(F)(F)F [Compound 14, Cis-N-[trans-4-[2-[4-(2-tert-butyl-6-cyclobutyl-pyrimidin-4-yl)piperazin-1-yl]ethyl]cyclohexyl]-4-hydroxy-cyclohexanecarboxamide; 2,2,2-trifluoroacetic acid]",> 120,++ (++ >20)
"CC(C)(C)c1nc(C2CCC2)cc(N2CCN(CC[C@H]3CC[C@@H](NC(=O)[C@H]4CC[C@@H](O)CC4)CC3)CC2)n1.O=C(O)C(F)(F)F [Compound 15, Cis-N-[cis-4-[2-[4-(2-tert-butyl-6-cyclobutyl-pyrimidin-4-yl)piperazin-1-yl]ethyl]cyclohexyl]-4-hydroxy-cyclohexanecarboxamide; 2,2,2-trifluoroacetic acid]",> 120,+++ (+++ >50)
"CC(C)(C)c1nc(C2CCC2)cc(N2CCN(CC[C@H]3C[C@H](NC(=O)[C@H]4CC[C@@H](O)CC4)C3)CC2)n1.O=C(O)C(F)(F)F [Compound 16, Cis-N-[trans-3-[2-[4-(2-tert-butyl-6-cyclobutyl-pyrimidin-4-yl)piperazin-1-yl]ethyl]cyclobutyl]-4-hydroxy-cyclohexanecarboxamide; 2,2,2-trifluoroacetic acid]",> 120,++ (++ >20)
"COCCc1cc(N2CCN(CC[C@H]3CC[C@H](NC(=O)[C@H]4C[C@@H](O)C4)CC3)CC2)nc(C(C)(C)C)n1 [Compound 18, cis-N-[trans-4-[2-[4-[2-tert-butyl-6-(2-methoxyethyl)pyrimidin-4-yl]piperazin-1-yl]ethyl]cyclohexyl]-3-hydroxy-cyclobutanecarboxamide]",20 to 120,+++ (+++ >50)
"CC(C)(C)c1cc(N2CCN(CC[C@H]3CC[C@H](NC(=O)[C@H]4CC[C@H](O)CC4)CC3)CC2)nc(C(C)(C)C)n1 [Compound 20, trans-N-[trans-4-[2-[4-(2,6-ditert-butylpyrimidin-4-yl)piperazin-1-yl]ethyl]cyclohexyl]-4-hydroxy-cyclohexanecarboxamide]",20 to 120,++ (++ >20)
"CC(C)(C)c1nc(N2CCN(CC[C@H]3CC[C@H](NC(=O)[C@H]4CC[C@H](O)CC4)CC3)CC2)cc(C(F)(F)F)n1 [Compound 21, trans-N-[trans-4-[2-[4-[2-tert-butyl-6-(trifluoromethyl)pyrimidin-4-yl]piperazin-1-yl]ethyl]cyclohexyl]-4-hydroxy-cyclohexanecarboxamide]",20 to 120,++ (++ >20)
"CC(C)(C)c1cc(N2CCN(CC[C@H]3CC[C@@H](NC(=O)[C@H]4CC[C@H](O)CC4)CC3)CC2)nc(C(C)(C)C)n1 [Compound 22, trans-N-[cis-4-[2-[4-(2,6-ditert-butylpyrimidin-4-yl)piperazin-1-yl]ethyl]cyclohexyl]-4-hydroxy-cyclohexanecarboxamide]",20 to 120,+++ (+++ >50)
"CC(C)(C)c1nc(N2CCN(CC[C@H]3CC[C@@H](NC(=O)[C@H]4CC[C@H](O)CC4)CC3)CC2)cc(C(F)(F)F)n1 [Compound 23, Trans-N-[cis-4-[2-[4-[2-tert-butyl-6-(trifluoromethyl)pyrimidin-4-yl]piperazin-1-yl]ethyl]cyclohexyl]-4-hydroxy-cyclohexanecarboxamide]",20 to 120,+++ (+++ >50)
"COCCc1cc(N2CCN(CC[C@H]3CC[C@H](NC(=O)[C@H]4CC[C@H](OC)CC4)CC3)CC2)nc(C(C)(C)C)n1 [Compound 24, trans-N-[trans-4-[2-[4-[2-tert-butyl-6-(2-methoxyethyl)pyrimidin-4-yl]piperazin-1-yl]ethyl]cyclohexyl]-4-methoxy-cyclohexanecarboxamide]",> 120,++ (++ >20)
"CC(C)(C)c1nc(N2CCN(CCC3CCC(NC(=O)C4CCC(O)CC4)CC3)CC2)cc(C2(C)CC2)n1 (centres unmarked) [Compound 27, N-[4-[2-[4-[2-tert-butyl-6-(1-methylcyclopropyl)pyrimidin-4-yl]piperazin-1-yl]ethyl]cyclohexyl]-4-hydroxy-cyclohexanecarboxamide]",20 to 120,++ (++ >20)
"CC(C)(C)c1nc(N2CCN(CC[C@H]3CC[C@@H](NC(=O)[C@H]4CC[C@H](O)CC4)CC3)CC2)cc(C2(C)CC2)n1 [Compound 28, Trans-N-[cis-4-[2-[4-[2-tert-butyl-6-(1-methylcyclopropyl)pyrimidin-4-yl]piperazin-1-yl]ethyl]cyclohexyl]-4-hydroxy-cyclohexanecarboxamide]",20 to 120,++ (++ >20)
